# Source: US20140186325A1, “Methods of Cancer Treatment and Prevention Through the Modulation of SIRT4 Activity” (President and Fellows of Harvard College, priority 2011, published 2014)
# Experiments:
# Type in all cases: cell-based
# SIRT4 protein [1] = test: SIRT4 protein expression by western blot, HEK293T cells
# SIRT4 protein [2] = test: SIRT4 protein expression by western blot, MEF cells
# SIRT4 = SIRT4 expression level after genotoxic stress, HEK293T cells; conditions: 14 μM CPT, 25 μM ETS, 48 μM tunicamycin
# Excerpt: The relationship between sirtuin expression and DNA damage was next investigated.
# MEF cells = test: Metabolite levels in culture media (BioProfile FLEX analyzer), MEF cells; conditions: 14 μM for 12 hours
# Method: (§1) The relationship between glutamine metabolism and DNA damage was investigated. HepG2 cells and MEF cells were treated with either 14 μM camptothecin (CPT) for 12 hours or 50 J/m^2 ultra-violet (UV) radiation, both of which are known to induce DNA damage in cells. Glucose, glutamine, lactate and ammonia (NH4^+) levels in culture media were measured using the BioProfile FLEX analyzer (Nova Biomedical) according to the manufacturer's instructions.
# HepG2 cells [3] = test: Metabolite levels in culture media (BioProfile FLEX analyzer), HepG2 cells; conditions: 14 μM for 12 hours
# Method: as §1
# HepG2 cells [4] = test: Relative ATP/ADP ratio of HepG2 cells stably expressing human SIRT4 or SIRT4 mutant; conditions: CPT (14 μM) + oligomycin (5 g/ml) for 18 hours
# Method: The relationship between SIRT4 and mitochondrial metabolism was next investigated. The relative ATP/ADP ratio of HepG2 cells that stably expressed human SIRT4 or SIRT4 mutant was measured following treatment with DMSO, CPT (14 μM) or CPT+oligomycin ([…]) for 18 hours.
# SIRT4 KO MEFs = test: Proliferation of SIRT4 KO MEFs; conditions: SIRT4 KO versus WT MEFs cultured with BPTES
# Method: To test whether enhanced glutamine metabolism drove the proliferative phenotype of KO cells, cells were cultured with BPTES and proliferation was measured.
# SIRT4 KO cells = test: Glutamine uptake of SIRT4 KO cells with glutaminolysis inhibitors; conditions: for glutamine uptake: 10 μM BPTES, 50 μM EGCG
# Method: (§2) As described above, SIRT4 represses glutamine-derived mitochondrial anaplerosis. This node was investigated further using a pharmacological and genetic approach. GLS is the first required enzyme for mitochondrial glutamine metabolism, and catalyzes the hydrolysis of glutamine to glutamate and ammonia. […] Drugs that block glutamate dehydrogenase (GDH) activity were also examined. There were no effects of a GDH inhibitor, 50 μM of Epigallocatechin gallate (EGCG), in glutamine uptake. Moreover, SIRT4 overexpression could no longer inhibit glutamine uptake and ammonia production when GLS1 was targeted using short hairpin RNA (shRNA) (FIG. 13b, c). Finally, cells were treated with chemical inhibitors of mitochondrial glutaminolysis in order to probe the model that suppressing this node could block the repression of glutamine uptake by DNA damage.
# [5] = test system: mitochondrial glutaminolysis; test: Repression of glutamine uptake by UV in the presence of inhibitors of mitochondrial glutaminolysis; conditions: in the presence of the inhibitor
# Method: as §2
# HeLa cells = test: Proliferation of control and SIRT4-expressing HeLa cells; conditions: media containing BPTES
compound,measurement,setting,value
"COc1cc([C@@H]2c3cc4c(cc3[C@@H](O[C@@H]3O[C@@H]5CO[C@@H](C)O[C@H]5[C@H](O)[C@H]3O)[C@H]3COC(=O)[C@H]23)OCO4)cc(OC)c1O [ETS, etoposide]",SIRT4 protein expression,SIRT4 protein [1],increased SIRT4 protein expression
same,SIRT4 protein expression,SIRT4 protein [2],increased SIRT4 protein expression
"CC[C@@]1(O)C(=O)OCc2c1cc1n(c2=O)Cc2cc3ccccc3nc2-1 [CPT, camptothecin]",level of SIRT4 expression versus length of exposure,SIRT4,correlated with the length of time
same,NH4+ production,MEF cells,significant reductions
same,glutamine consumption,MEF cells,significant reductions
same,SIRT4 protein expression,SIRT4 protein [1],increased SIRT4 protein expression
same,NH4+ production,HepG2 cells [3],significant reductions
same,glutamine consumption,HepG2 cells [3],significant reductions
same,SIRT4 protein expression,SIRT4 protein [2],increased SIRT4 protein expression
tunicamycin,level of SIRT4 expression versus length of exposure,SIRT4,correlated with the length of time
CC[C@H]1/C=C/C=C/C[C@@H](C)[C@H](O)[C@@](C)(O)C(=O)[C@@H](C)[C@H](O)[C@@H](C)C(=O)[C@@H](C)[C@H](O)[C@@H](C)/C=C/C(=O)O[C@@H]2[C@H](C)[C@H](CC1)O[C@]1(CC[C@H](C)[C@H](C[C@@H](C)O)O1)[C@H]2C [oligomycin],difference in ATP/ADP ratio between SIRT4 and mutant SIRT4 over-expressing cells after CPT,HepG2 cells [4],difference disappeared
"O=C(Cc1ccccc1)Nc1nnc(CCSCCc2nnc(NC(=O)Cc3ccccc3)s2)s1 [BPTES, bis-2-(5-phenylacetoamido-1,2,4-thiadiazol-2-yl)ethyl sulfide]",increased proliferation of KO cells,SIRT4 KO MEFs,completely abrogated
same,increased glutamine consumption of SIRT4 KO cells,SIRT4 KO cells; 10 μM,rescued
same,glutamine uptake,SIRT4 KO cells,repressed glutamine uptake
same,repression of glutamine uptake by UV treatment,[5],could no longer repress glutamine uptake
same,proliferation of control and SIRT4-expressing cells,HeLa cells,proliferated at similar rates
"O=C(O[C@@H]1Cc2c(O)cc(O)cc2O[C@@H]1c1cc(O)c(O)c(O)c1)c1cc(O)c(O)c(O)c1 [EGCG, Epigallocatechin gallate]",glutamine uptake,SIRT4 KO cells,no effects
